Results: US20240002354A1, “ANTIDIABETIC COMPOUNDS AND COMPOSITIONS” (REZUBIO PHARMACEUTICALS CO., LTD, priority 2020, published 2024)

These molecules were tested against T1, GPR40 (Homo sapiens, UniProt O14842) (assay: IP1 accumulation assay (Cisbio IP-One HTRF) in HEK293 cells stably expressing GPR40). Settings: HEK293 cells stably expressing GPR40, 37° C. for 2 hours, % Effect relative to AMG-1638 positive control.
T1 construct: expressed in transfected cells
Format: cell-based
Protocol: IP1 accumulation assay was used to evaluate the potency of compounds. HEK293 cells stably expressing GPR40 were cultured in 5% CO2 incubator (ThermoFisher) in maintenance media (Dulbecco's modified Eagle's medium with 4.5 g/L of glucose, 10% fetal bovine serum, 100 μg/mL Hygromycin, and Penicillin (100 U/mL)/Streptomycin (100 μg/mL)) till 100% confluency. Cells were harvested freshly, spun down at 300×g for 5 min, and resuspended in pre-warmed 1× stimulant buffer from Cisbio IP-One HTRF Detection kit (Cisbio). Cell density was adjusted to 2.0×10^6 cells/mL. DMSO was used as blank control and AMG-1638 (CAS #: 1142214-62-7) as positive control. Compounds were prepared at 10 mM in DMSO and 5 nL of 3× serially diluted compounds (10 concentrations) were added to each well of the 384-LDV assay plate (Corning) by using ECHO 550 (Labcyte). Five μL of cells in suspension were transferred into each well by using Multidrop Combi Reagent Dispenser (ThermoFisher). Assay plate was then sealed and incubated at 37° C. for 2 hours. IP-d2 reagent and anti-IP1 reagent were prepared following the manual (Cisbio). Five μL of IP1-d2 and then 5 μL of anti-IP1 antibody was added to each well sequentially. Assay plate was incubated at room temperature for 60 min and then read at 665 nm/615 nm on an Envision plate reader (PerkinElmer). The ratio of values obtained at 665 nm and 615 nm was used for calculation of IP1 accumulation: % Effect=(Ratiosample−Ratioblank)/(RatioAMG-1638−Ratioblank)×100. Dose curve was fitted and EC50 of each compound was calculated by using XLFit.

T1 sequence (O14842 whole entry): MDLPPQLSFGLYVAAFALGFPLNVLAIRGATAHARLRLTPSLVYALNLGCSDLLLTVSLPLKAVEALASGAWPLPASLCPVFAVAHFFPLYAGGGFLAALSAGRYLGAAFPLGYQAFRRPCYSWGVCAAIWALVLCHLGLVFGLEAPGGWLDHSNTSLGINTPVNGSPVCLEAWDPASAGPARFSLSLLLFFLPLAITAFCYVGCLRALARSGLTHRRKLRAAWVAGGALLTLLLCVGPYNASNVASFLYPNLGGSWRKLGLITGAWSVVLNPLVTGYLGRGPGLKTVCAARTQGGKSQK

Row | Molecule | EC50
1 | CCCCCCn1cc(COc2ccc(OC(F)(F)F)c(CN3CCC([C@H]4CCc5ccc([C@H](C6CC6)[C@H](C)C(=O)O)cc5O4)CC3)c2)nn1 [compound 190, (2S,3R)-3-cyclopropyl-3-((R)-2-(1-(5-((1-hexyl-1H-1,2,3-triazol-4-yl)methoxy)-2-(trifluoro-methoxy)benzyl)piperidin-4-yl)chroman-7-yl)-2-methylpropanoic acid] | 50 to 250 nM
2 | C#Cc1ccc(OC(F)(F)F)c(CN2CCC([C@H]3CCc4ccc([C@H](C5CC5)[C@H](C)C(=O)O)cc4O3)CC2)c1 [compound 193, (2S,3R)-3-cyclopropyl-3-((R)-2-(1-(5-ethynyl-2-(trifluoromethoxy)benzyl)piperidin-4-yl)-chroman-7-yl)-2-methylpropanoic acid] | 1 to 50 nM
3 | C[C@H](C(=O)O)[C@H](c1ccc2c(c1)O[C@H](C1CCN(Cc3cc(N=[N+]=[N-])ccc3OC(F)(F)F)CC1)CC2)C1CC1 [compound 194, (2S,3R)-3-((S)-2-(1-(5-azido-2-(trifluoromethoxy)benzyl)piperidin-4-yl)chroman-7-yl)-3-cyclopropyl-2-methylpropanoic acid] | 1 to 50 nM
4 | CCCCCCc1cn(Cc2ccc(OC(F)(F)F)c(CN3CCC([C@H]4CCc5ccc([C@H](C6CC6)[C@H](C)C(=O)O)cc5O4)CC3)c2)nn1 [compound 195, (2S,3R)-3-cyclopropyl-3-((R)-2-(1-(5-((4-hexyl-1H-1,2,3-triazol-1-yl)methyl)-2-(trifluoro-methoxy)benzyl)piperidin-4-yl)chroman-7-yl)-2-methylpropanoic acid] | 1 to 50 nM
5 | CCCCCCCCCCc1ccc(OC(F)(F)F)c(CN2CCC([C@H]3CCc4ccc([C@H](C5CC5)[C@H](C)C(=O)O)cc4O3)CC2)c1 [compound 205, (2S,3R)-3-cyclopropyl-3-((R)-2-(1-(5-decyl-2-(trifluoromethoxy)benzyl)piperidin-4-yl)chroman-7-yl)-2-methylpropanoic acid] | 50 to 250 nM
6 | COc1ccc2cc(CN=[N+]=[N-])oc2c1CN1CCC([C@H]2CCc3ccc([C@H](C4CC4)[C@H](C)C(=O)O)cc3O2)CC1 [compound 207, (2S,3R)-3-((R)-2-(1-((2-(azidomethyl)-6-methoxybenzofuran-7-yl)methyl)-piperidin-4-yl)chroman-7-yl)-3-cyclopropyl-2-methylpropanoic acid] | ≥ 5000 nM
7 | CCCCCCc1cn(Cc2cc3ccc(OC)c(CN4CCC([C@H]5CCc6ccc([C@H](C7CC7)[C@H](C)C(=O)O)cc6O5)CC4)c3o2)nn1 [compound 209, (2S,3R)-3-cyclopropyl-3-((R)-2-(1-((2-((4-hexyl-1H-1,2,3-triazol-1-yl)methyl)-6-methoxybenzofuran-7-yl)methyl)piperidin-4-yl)chroman-7-yl)-2-methylpropanoic acid] | 1000 to 5000 nM
8 | C[C@H](C(=O)O)[C@H](c1ccc2c(c1)O[C@@H](C1CCN(Cc3cc(-c4cn(CCCCCCCCCCCCCCCCCC(=O)OCc5ccccc5)nn4)ccc3OC(F)(F)F)CC1)CC2)C1CC1 [compound 210, (2S,3R)-3-((R)-2-(1-(5-(1-(18-(benzyloxy)-18-oxooctadecyl)-1H-1,2,3-triazol-4-yl)-2-(trifluoromethoxy)benzyl)piperidin-4-yl)chroman-7-yl)-3-cyclopropyl-2-methylpropanoic acid] | 50 to 250 nM
9 | (2S,2'S,3R,3′R)-3,3′-((2R,2′R)-2,2′-(1,1′-(((1,1′-(26-(2-(bis(3-((2-aminoethyl)amino)-3-oxopropyl)amino) ethyl)-18,23,29,34-tetraoxo-19,22,26,30,33-pentaazahenpentacontane-1,51-diyl)bis(1H-1,2,3-triazole-4,1-diyl))bis(2-(trifluoromethoxy)-5,1-phenylene))bis(methylene))bis (piperidine-4,1-diyl))bis(chroman-7,2-diyl))bis(3-cyclopropyl-2-methylpropanoic acid) [compound 203] | 50 to 250 nM
